Data from patent US12622910B2, “Inhibitors of Bruton's tyrosine kinase and methods of their use” (Janssen Pharmaceutica NV, priority 2021, dated 2026).
Like-named read-outs stand apart in the source and are kept apart here. Marks after values point to notes of the source that are not given here.

Assay: Phase 1 first-in-human study, plasma pharmacokinetics
Assay type: in vivo
Conditions: for half-life / Tmax / AUC(0-inf) / Cmax / AUC(0-t): male, human, plasma, po
Description: Safety, tolerability, PK, and BTKO were assessed for six doses of compound of Formula (III) oral solution (4, 12, 36, 100, 200, 400 mg) in participants under fasted conditions. The SAD part comprised 10 cohorts of 8 participants each (FIG. 1). In each cohort receiving compound of Formula (III) oral solution (Cohorts 1-9), 6 participants were randomized to receive compound of Formula (III) and 2 to receive placebo. All participants in Cohort 10 received compound of Formula (III) as an oral capsule. All 10 cohorts included 2 sentinel participants who were dosed ˜24 hours prior to the rest of the cohort. In cohorts receiving compound of Formula (III) oral solution, 1 sentinel participant received compound of Formula (III) and the other received placebo.
Six male escalating dose cohorts received a single oral dose of 4, 12, 36, 100, 200, 400 mg compound of Formula (III) or placebo solution under fasted conditions. Gender effects were assessed in 2 female cohorts whose participants received either a 36 or 100 mg dose of compound of Formula (III) or placebo as an oral solution under fasted conditions. Food effects were evaluated in a male cohort receiving compound of Formula (III) 100 mg or placebo as an oral solution after a high-fat breakfast.
Safety, tolerability, and PK of a solid dose formulation of compound of Formula (III) were assessed in an additional male cohort (Cohort 10) that received 3×35 mg (105 mg) of compound of Formula (III) in the fasted state. Since all the participants received the same dose of compound of Formula (III), this cohort was not blinded.
Safety, tolerability, PK, and BTKO following multiple compound of Formula (III) doses were evaluated in 3 dose escalation cohorts with a total of 18 participants (males: 9, females: 9) receiving active study drug. In each cohort, 3 males and 3 females were randomized to receive 36 mg once-daily (QD), 100 mg QD, or 200 mg QD compound of Formula (III) oral solution and 3 participants (males: 2; female: 1) to receive placebo. Two male participants in each cohort served as sentinel participants: one received compound of Formula (III) and other received placebo ˜48 hours prior to other participants in the cohort. All safety and tolerability data (through the follow-up visit), PK data (through at least 24 hours after last dose administration), and all available PD data were reviewed from each cohort before a decision was made to dose escalate.
Sample collection—For the PK assessment of compound of Formula (III), venous blood samples (2 to 4 mL each) were collected predose and at 15 min, 0.5, 1, 1.5, 2, 2.5, 3, 4, 6, 8, 12, 24, 36, 48, and 72 hours post-dose in Part 1. In Part 2, samples were collected predose and at 15 min, 0.5, 1, 1.5, 2, 2.5, 3, 4, 6, 8, 12 hours post-dose on day 1, predose and 1 hour post-dose on days 2-9, and predose and at 15 min, 0.5, 1, 1.5, 2, 2.5, 3, 4, 6, 8, 12, 24, 48, and 72 hours after the last dose on day 10. Plasma samples were analyzed to determine concentrations of compound of Formula (III) using a scientific validated, specific, and sensitive liquid chromatography-mass spectrometry (LC-MS/MS) method.
The PK analysis for the compound of Formula (III) samples was performed using a non-compartmental method with validated Phoenix® WinNonlin® (version 8.0, Certara L.P.).

[1] = 36 mg, single 36 mg oral solution, male fasted
[2] = 100 mg, single 100 mg oral solution, male fasted
[3] = 100 mg, single 100 mg oral solution, male fed (high-fat breakfast)
[4] = 105 mg, single 105 mg (3 × 35 mg) oral capsule, male fasted
[5] = 200 mg, single 200 mg oral solution, male fasted
[6] = 400 mg, single 400 mg oral solution, male fasted
[7] = single 12 mg oral solution, male fasted
[8] = single 100 mg oral solution, female fasted

## C=CC(=O)N[C@H]1CCC[C@H]1NC(=O)c1sc2nccc3c2c1NC(=O)N3c1cnc(CC(C)C)cc1C (atropisomer, axis not shown) [compound of Formula (III), N-((1R,2S)-2-Acrylamidocyclopentyl)-5-(S)-(6-isobutyl-4-methylpyridin-3-yl)-4-oxo-4,5-dihydro-3H-1-thia-3,5,8-triazaacenaphthylene-2-carboxamide]
12 mg, single 12 mg oral solution, male fasted, read-out: t1/2, λz (converted)
  half-life: 1.6 h
12 mg, single 12 mg oral solution, male fasted, read-out: tmax, median (min-max)
  Tmax: 1 h
[1]
  AUC(0-inf): 644 ng·h/mL
  Cmax: 200 ng/mL
36 mg, single 36 mg oral solution, male fasted, read-out: AUC0-24 h
  AUC(0-t): 649 ng·h/mL
36 mg, single 36 mg oral solution, male fasted, read-out: AUClast
  AUC(0-t): 649 ng·h/mL
36 mg, single 36 mg oral solution, male fasted, read-out: t1/2, dom (converted)
  half-life: 1.6 h
36 mg, single 36 mg oral solution, male fasted, read-out: t1/2, λz (converted)
  half-life: 2.1 h
36 mg, single 36 mg oral solution, male fasted, read-out: tmax, median (min-max)
  Tmax: 1 h
[2]
  AUC(0-inf): 20.6 ng·h/mL
  Cmax: 923 ng/mL
100 mg, single 100 mg oral solution, male fasted, read-out: AUC0-24 h
  AUC(0-t): 2140 ng·h/mL
100 mg, single 100 mg oral solution, male fasted, read-out: AUClast
  AUC(0-t): 2140 ng·h/mL
100 mg, single 100 mg oral solution, male fasted, read-out: t1/2, dom (converted)
  half-life: 1.9 h
100 mg, single 100 mg oral solution, male fasted, read-out: t1/2, λz (converted)
  half-life: 5 h
100 mg, single 100 mg oral solution, male fasted, read-out: tmax, median (min-max)
  Tmax: 0.5 h
[3]
  AUC(0-inf): 1760 ng·h/mL
  Cmax: 277 ng/mL
100 mg, single 100 mg oral solution, male fed (high-fat breakfast), read-out: AUC0-24 h
  AUC(0-t): 1720 ng·h/mL
100 mg, single 100 mg oral solution, male fed (high-fat breakfast), read-out: AUClast
  AUC(0-t): 1750 ng·h/mL
100 mg, single 100 mg oral solution, male fed (high-fat breakfast), read-out: t1/2, dom (converted)
  half-life: 2 h
100 mg, single 100 mg oral solution, male fed (high-fat breakfast), read-out: t1/2, λz (converted)
  half-life: 10.8 h
100 mg, single 100 mg oral solution, male fed (high-fat breakfast), read-out: tmax, median (min-max)
  Tmax: 2.5 h
[4]
  AUC(0-inf): 1500 ng·h/mL
  Cmax: 345 ng/mL
105 mg, single 105 mg (3 × 35 mg) oral capsule, male fasted, read-out: AUC0-24 h
  AUC(0-t): 1320 ng·h/mL
105 mg, single 105 mg (3 × 35 mg) oral capsule, male fasted, read-out: AUClast
  AUC(0-t): 1450 ng·h/mL
105 mg, single 105 mg (3 × 35 mg) oral capsule, male fasted, read-out: t1/2, dom (converted)
  half-life: 1.9 h
105 mg, single 105 mg (3 × 35 mg) oral capsule, male fasted, read-out: t1/2, λz (converted)
  half-life: 14.2 h
105 mg, single 105 mg (3 × 35 mg) oral capsule, male fasted, read-out: tmax, median (min-max)
  Tmax: 1.5 h
[5]
  AUC(0-inf): 2780 ng·h/mL
  Cmax: 1210 ng/mL
200 mg, single 200 mg oral solution, male fasted, read-out: AUC0-24 h
  AUC(0-t): 2750 ng·h/mL
200 mg, single 200 mg oral solution, male fasted, read-out: AUClast
  AUC(0-t): 277 ng·h/mL
200 mg, single 200 mg oral solution, male fasted, read-out: t1/2, dom (converted)
  half-life: 1.8 h
200 mg, single 200 mg oral solution, male fasted, read-out: t1/2, λz (converted)
  half-life: 12.9 h
200 mg, single 200 mg oral solution, male fasted, read-out: tmax, median (min-max)
  Tmax: 1 h
[6]
  AUC(0-inf): 4200 ng·h/mL
  Cmax: 1920 ng/mL
400 mg, single 400 mg oral solution, male fasted, read-out: AUC0-24 h
  AUC(0-t): 3700 ng·h/mL
400 mg, single 400 mg oral solution, male fasted, read-out: AUClast
  AUC(0-t): 3830 ng·h/mL
400 mg, single 400 mg oral solution, male fasted, read-out: t1/2, dom (converted)
  half-life: 2.2 h
400 mg, single 400 mg oral solution, male fasted, read-out: t1/2, λz (converted)
  half-life: 13.2 h
400 mg, single 400 mg oral solution, male fasted, read-out: tmax, median (min-max)
  Tmax: 0.75 h
Single 4 to 400 mg oral solution, male fasted, read-out: mean t1/2, dom across doses
  half-life: 1.5 to 2.2 h
Single 4 to 400 mg oral solution, male fasted, read-out: mean t1/2, λz across doses
  half-life: 1.6 to 13.2 h
Single 4 to 400 mg oral solution, male fasted, read-out: median tmax across doses
  Tmax: 0.5 to 1 h
Single 4 mg oral solution, male fasted
  AUC∞/Dose: 38.9 (12.5) h · ng/mL/mg
[7]
  AUC∞/Dose: 26.4 (9.07) h · ng/mL/mg
  Cmax/Dose: 7.33 ng/mL
Single 36 mg fasted
  mean Cmax and AUCs, females higher than males by: 17-27%
Single 36 mg oral solution, female fasted
  AUC∞/Dose: 1.9 (0.5) h · ng/mL/mg
Single 36 mg oral solution, male fasted
  AUC∞/Dose: 17.9 (6.64) h · ng/mL/mg
Single 100 mg fasted
  mean Cmax and AUCs, females lower than males by: 30-35%
[8]
  AUC∞/Dose: 13.4 (4.60) h · ng/mL/mg
  t1/2, λz: 11.67 (7.8)^c h
Single 100 mg oral solution, male fasted
  AUC∞/Dose: 20.6 (7.60) h · ng/mL/mg
Single 100 mg oral solution, male fed (high-fat breakfast)
  AUC∞/Dose: 17.6 (4.20) h · ng/mL/mg
Single 100 mg, fed vs fasted
  Cmax lowered by high-fat meal: approximately 70%
Single 105 mg (3 × 35 mg) oral capsule, male fasted
  AUC∞/Dose: 14.3 (7.59) h · ng/mL/mg
Single 200 mg oral solution, male fasted
  AUC∞/Dose: 13.9 (3.80) h · ng/mL/mg
Single 400 mg oral solution, male fasted
  AUC∞/Dose: 9.11 (4.68) h · ng/mL/mg
